Test results as given in PMC9706920, “Aryloxypropanolamine targets amyloid aggregates and reverses Alzheimer-like phenotypes in Alzheimer mouse models” (Alzheimer's Research & Therapy, 2022).

Legend:
Aβ(1–42) aggregates = target: T1, Aβ(1–42) aggregates (Homo sapiens, UniProt P05067); test: SDS-PAGE with PICUP and silver staining; type: biochemical; details: 500 μM compound, aggregated Aβ(1–42)
T1 construct: made in house; host or cells: chemical synthesis (Fmoc solid phase peptide synthesis)
Protocol: SDS-PAGE with photo-induced cross-linking of unmodified proteins (PICUP) and silver staining was used to evaluate the disaggregating effects of YIAD001 and YIAD002 by visualizing the size distributions and band intensity of Aβ(1–42). Samples were prepared under the same conditions as the Aβ(1–42) disaggregation ThT fluorescence assay. Amyloid proteins in the samples from the aforementioned disaggregation assay were subjected to cross-linking, initiated by irradiation (three exposures, each for 1 second) in the presence of tris(2,2′-bipyridyl)dichlororuthenium(II) hexahydrate (Ru(Bpy)) (1 mM) and 1 μL of ammonium persulfate (20 mM). Reactions were immediately quenched with β-mercaptoethanol and boiled for 5 min at 95°C. After cross-linking the samples, we separated amyloid species by SDS-PAGE on a 15% tris-tricine gel and performed silver staining according to the PlusOne Silver Staining kit protocol (GE Healthcare, USA).

Aβ(1–40) aggregates = target: T2, Aβ(1–40) aggregates (Homo sapiens, UniProt P05067); test: ThT fluorescence Aβ(1–40) disaggregation assay; type: biochemical; details: 500 μM compound, Aβ(1–40) 25 μM pre-aggregated 3 days, co-incubated additional 3 days
T2 construct: Aβ(1–40), […]; […]; made in house; host or cells: chemical synthesis (Fmoc solid phase peptide synthesis)
Protocol: ThT fluorescence was used to assess the in vitro inhibition of Aβ(1–42) and disaggregation of Aβ(1–42), Aβ(1–40), Aβ(pE3-42), recombinant tau K18, and tau repeats R1, R2, R3, R4 by YIAD compounds. In house synthetic Aβ(1–42) was dissolved in DMSO (1 mM, 100% DMSO) and diluted to 20-fold in deionized water to make 50 μM Aβ(1–42) stocks (5% DMSO). YIAD compounds were first dissolved in DMSO (100 mM, 100% DMSO) and serially diluted with deionized water to make YIAD stocks with concentrations of 1, 10, 100, and 1000 μM (10% DMSO). For the Aβ(1–42) inhibition assay, monomeric Aβ(1–42) stocks and YIAD stocks were co-incubated at 37°C for 3 days. For Aβ(1–42) disaggregation assay, monomeric Aβ(1–42) stocks were preincubated at 37°C for three days to form Aβ(1–42) aggregates, and subsequently, YIAD stocks were added for an additional 3 days. For Aβ(1-40) disaggregation assays, Aβ(1–40) (50 μM, 5% DMSO) was preincubated at 37°C for 3 days to induce aggregation, and co-incubated with YIAD001 and YIAD002 for an additional 3 days. […] Prior to fluorescence intensity measurement, ThT solution (5 μM) was prepared by dissolving ThT, purchased from Sigma-Aldrich (MO, USA) in 50 mM glycine buffer (pH 8.5). To quantify the effect of inhibition and disaggregation, 25 μL of all samples and 75 μL of ThT solution were loaded into a half-area 96-well black plate in triplicate.

5XFAD mice = test: Dot blot assay (6E10, A11) of soluble brain lysates of 5XFAD mice, incl. MWCO filtration; type: in vivo, mouse; details: 50 mg/kg/day, 5 weeks; for Total Aβ (6E10) in cortical lysates after GdnHCl denaturation and 100 kDa MWCO filtration: APP removed
Protocol: To test the in vivo efficacy of YIAD001 and YIAD002, female 5XFAD mice (n = 25) and female wildtype mice (n = 7) were assessed at the age of 4.5 months. YIAD compounds were dissolved in DMSO and diluted in drinking water to a final concentration of 50 mg/kg/day (5% DMSO, 5% Tween) for oral administration. The three compounds, YIAD001, YIAD002, and YIAD003, were freely administered via drinking water to 4.5-month-old 5XFAD mice (n = 6 for each group) for 5 weeks. As a control, 5% DMSO, 5% Tween in drinking water was provided ad libitum to littermate 5XFAD mice (n = 7) and wildtype mice (n = 7) for 5 weeks.
After the administration period, the mice were deeply anaesthetized with 4% avertin through intraperitoneal injection and transcardially perfused with 0.9% saline. Subsequently, the mice were sacrificed for brain excision. Each collected brain was divided through the mid-sagittal section; the hippocampal and cortical regions were dissected from one half and stored at −80°C for subsequent brain lysates, while the other half was immersed in 4% paraformaldehyde (pH 7.4) for 24 h and 30% sucrose for 48 h at 4°C and subsequently deep-froze at −80°C for immunohistochemistry.
Isolated cortical and hippocampal tissue samples were homogenized in ice-cold RIPA buffer with protease inhibitor cocktail and phosphatase inhibitor cocktail. Lysed tissues were incubated in ice for 30 min and subsequently centrifuged at 14,000 rpm at 4°C for 30 min. The supernatants of the brain lysates were collected and soluble protein concentrations were quantified with the Pierce BCA protein assay kit (Thermo Fisher Scientific, USA).
To analyze total and oligomeric amyloid levels, protein samples (12 μg in 2 μL) and prepared in vitro disaggregation assay samples (2 μL) were directly blotted on nitrocellulose membranes. After blocking with 5% skim milk in TBS-T, the membranes were probed with anti-6E10 antibody (1:1,000, Biolegend 803003) and anti-A11 antibody (1:2000, Invitrogen AHB0052) at 4°C overnight. HRP-conjugated goat anti-mouse antibody (1:10,000, Bethyl Laboratories A90-116P) and anti-rabbit secondary antibody (1:10,000, Bethyl Laboratories A120-101P) were used for 6E10 and A11, respectively. Proteins were detected using an ECL kit (Thermo Fisher Scientific, USA). Membranes were washed with TBS-T in between steps, three times for 10 min.
To exclusively investigate soluble Aβ levels in cortical lysates, guanidinium hydrochloride (GdnHCl) in a lysis buffer (5.0 M GdnHCl, 50 mM Tris-HCl, pH 8.0) was utilized to solubilize and denature endogenous Aβ aggregates prior to filtration. The homogenates were incubated with agitation for 3 h at RT. The incubated samples were then quantified to prepare protein samples (10 μg in 4 μL) and were filtered through a 100 kDa molecular weight cut-off (MWCO) filter, centrifuged at 14,000 rpm at RT for 30 min, to remove APP. For subsequent dot blot assay, total […] of the filtrate was spotted onto a nitrocellulose membrane and probed with anti-6E10 antibody (1:1000, Biolegend 803003).

T1 sequence (P05067 672-713 limits assumed): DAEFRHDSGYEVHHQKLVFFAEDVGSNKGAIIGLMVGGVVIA
T2 sequence (P05067 672-711): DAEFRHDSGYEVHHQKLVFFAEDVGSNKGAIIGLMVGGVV

CCC(C)(C)c1ccc(OCC(O)CN2CCOCC2)c(C(C)(C)CC)c1.Cl (stereo not shown) [YIAD001, 4-(3-(2,4-Di-tert-pentylphenoxy)-2-hydroxypropyl)morpholin-4-ium chloride]
Size distribution of Aβ(1–42) bands (fibrils, monomers) (Aβ(1–42) aggregates): reduced fibrils and increased monomers | Decrease of Aβ(1–40) aggregates (ThT fluorescence) (Aβ(1–40) aggregates): 58.98% | Total Aβ (6E10) in cortical lysates after GdnHCl denaturation and 100 kDa MWCO filtration (5XFAD mice): reduction of Aβ | 6E10-detected total Aβ, cortical lysates (5XFAD mice; soluble fraction): significantly reduced | 6E10-detected total Aβ, hippocampus (5XFAD mice; soluble fraction): not significantly changed | A11-detected oligomer levels, cortical lysates (5XFAD mice; soluble fraction): trend of reduction

CCC(C)(C)c1ccc(OCC(O)CN2CCCC2)c(C(C)(C)CC)c1.Cl (stereo not shown) [YIAD002, 1-(3-(2,4-Di-tert-pentylphenoxy)-2-hydroxypropyl)pyrrolidin-1-ium chloride]
Size distribution of Aβ(1–42) bands (fibrils, monomers) (Aβ(1–42) aggregates): reduced fibrils and increased monomers | Decrease of Aβ(1–40) aggregates (ThT fluorescence) (Aβ(1–40) aggregates): 83.35% | Total Aβ (6E10) in cortical lysates after GdnHCl denaturation and 100 kDa MWCO filtration (5XFAD mice): reduction of Aβ | 6E10-detected total Aβ, cortical lysates (5XFAD mice; soluble fraction): significantly reduced | 6E10-detected total Aβ, hippocampus (5XFAD mice; soluble fraction): not significantly changed | A11-detected oligomer levels, cortical lysates (5XFAD mice; soluble fraction): trend of reduction | Oligomeric Aβ content (A11), hippocampus (5XFAD mice; soluble fraction): significantly reduced
